From ChEMBL document CHEMBL4411260, “Dual Inhibition of TYK2 and JAK1 for the Treatment of Autoimmune Diseases: Discovery of (( S)-2,2-Difluorocyclopropyl)((1 R,5 S)-3-(2-((1-methyl-1 H-pyrazol-4-yl)amino)pyrimidin-4-yl)-3,8-diazabicyclo[3.2.1]octan-8-yl)methanone (PF-06700841)” (J Med Chem, 2018)
pIC50: −log10 of the molar value. Values after ≈ are worked out from the molar mass of the structure shown.

What was measured:
[1] = Passive apparent permeability from apical to basolateral side in RRCK cells; assay type: ADME, cell-based, Canis lupus familiaris, MDCKII-LE; conditions: dog, MDCK
[2] = Thermodynamic equilibrium solubility of the compound at pH 7.64 phosphate buffer saline by UPLC analysis; assay type: physicochemical; conditions: read-out: Therm_solubility
[3] = Solubility of compound in fasted state simulated intestinal fluid; assay type: physicochemical
[4] = Solubility of compound in fed state simulated intestinal fluid; assay type: physicochemical
[5] = Unbound intrinsic clearance in human liver microsomes assessed as per mg protein; assay type: ADME, Microsome
[6] = Unbound intrinsic clearance in human hepatocytes assessed as per million cells; assay type: ADME, cell-based, Hepatocyte
[7] = Fraction unbound in rat plasma; assay type: ADME, cell-free
[8] = Fraction unbound in human plasma; assay type: ADME, cell-free
[9] = target: T1, Vascular endothelial growth factor receptor 2 (Homo sapiens, UniProt P35968); assay: Inhibition of recombinant human VEGFR2 using Ulight-CAGAGAIETDKEYYTVKD as substrate after 60 mins
T1 sequence (P35968 whole entry): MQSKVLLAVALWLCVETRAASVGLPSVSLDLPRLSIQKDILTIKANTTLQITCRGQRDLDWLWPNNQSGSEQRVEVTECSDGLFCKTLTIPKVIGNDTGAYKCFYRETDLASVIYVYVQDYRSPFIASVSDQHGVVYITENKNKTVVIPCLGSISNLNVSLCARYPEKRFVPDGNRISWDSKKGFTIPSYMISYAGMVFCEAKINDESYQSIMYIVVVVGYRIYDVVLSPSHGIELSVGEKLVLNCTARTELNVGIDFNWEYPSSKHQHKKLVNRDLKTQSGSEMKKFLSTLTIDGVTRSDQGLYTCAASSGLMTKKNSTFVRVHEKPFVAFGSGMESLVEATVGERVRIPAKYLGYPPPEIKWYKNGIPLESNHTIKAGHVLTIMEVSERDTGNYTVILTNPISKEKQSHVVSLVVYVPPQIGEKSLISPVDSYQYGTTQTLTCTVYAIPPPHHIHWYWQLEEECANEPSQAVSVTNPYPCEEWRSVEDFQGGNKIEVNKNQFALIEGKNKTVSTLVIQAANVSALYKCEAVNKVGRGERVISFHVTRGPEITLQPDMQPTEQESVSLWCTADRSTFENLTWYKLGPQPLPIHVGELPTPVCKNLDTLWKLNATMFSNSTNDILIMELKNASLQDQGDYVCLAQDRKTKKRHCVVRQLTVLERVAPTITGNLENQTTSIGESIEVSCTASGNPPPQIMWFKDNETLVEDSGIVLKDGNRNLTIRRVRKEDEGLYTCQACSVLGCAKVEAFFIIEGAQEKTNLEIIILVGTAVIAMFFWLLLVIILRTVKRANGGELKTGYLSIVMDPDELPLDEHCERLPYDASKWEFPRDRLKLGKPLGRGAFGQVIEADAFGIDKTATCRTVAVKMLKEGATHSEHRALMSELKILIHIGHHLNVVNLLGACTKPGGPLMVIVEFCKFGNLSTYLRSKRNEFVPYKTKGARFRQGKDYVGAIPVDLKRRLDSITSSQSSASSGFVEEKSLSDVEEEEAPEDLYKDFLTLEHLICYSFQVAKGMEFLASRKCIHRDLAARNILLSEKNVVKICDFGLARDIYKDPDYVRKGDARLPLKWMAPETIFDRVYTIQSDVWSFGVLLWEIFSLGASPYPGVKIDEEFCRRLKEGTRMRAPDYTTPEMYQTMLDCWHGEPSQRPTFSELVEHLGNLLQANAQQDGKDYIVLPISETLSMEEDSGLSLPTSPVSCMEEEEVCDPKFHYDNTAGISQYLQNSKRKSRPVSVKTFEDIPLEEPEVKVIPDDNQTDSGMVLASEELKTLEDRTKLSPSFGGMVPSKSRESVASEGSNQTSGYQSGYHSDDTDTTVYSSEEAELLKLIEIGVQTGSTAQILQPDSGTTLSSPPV

[10] = target: T1, Vascular endothelial growth factor receptor 2; assay: Inhibition of VEGFR2 (unknown origin) by cell based assay
[11] = Drug metabolism in human liver microsomes assessed as oxidative metabolite formation; assay type: ADME, Microsome
[12] = Drug metabolism in rat liver microsomes assessed as oxidative metabolite formation; assay type: ADME, Microsome
[13] = Drug metabolism in monkey liver microsomes assessed as oxidative metabolite formation; assay type: ADME, Macaca mulatta, Microsome; conditions: rhesus monkey
[14] = Drug metabolism in human liver microsomes assessed as oxidation of N-methy pyrazole; assay type: ADME, Microsome
[15] = Drug metabolism in human liver microsomes assessed as N-demethylation; assay type: ADME, Microsome
[16] = Drug metabolism in human liver microsomes assessed as N-dealkylation; assay type: ADME, Microsome
[17] = Drug metabolism in rat liver microsomes assessed as oxidation of N-methy pyrazole; assay type: ADME, Microsome
[18] = Drug metabolism in rat liver microsomes assessed as N-demethylation; assay type: ADME, Microsome
[19] = Drug metabolism in rat liver microsomes assessed as N-dealkylation; assay type: ADME, Microsome
[20] = Drug metabolism in monkey liver microsomes assessed as oxidation of N-methy pyrazole; assay type: ADME, Macaca mulatta, Microsome; conditions: rhesus monkey
[21] = Drug metabolism in monkey liver microsomes assessed as N-demethylation; assay type: ADME, Macaca mulatta, Microsome; conditions: rhesus monkey
[22] = Drug metabolism in monkey liver microsomes assessed as N-dealkylation; assay type: ADME, Macaca mulatta, Microsome; conditions: rhesus monkey
[23] = Drug metabolism in monkey liver microsomes assessed as CYP3A4-mediated metabolism; assay type: ADME, Macaca mulatta; conditions: rhesus monkey
[24] = Drug metabolism in rat liver microsomes assessed as CYP3A4-mediated metabolism; assay type: ADME
[25] = target: Cytochrome P450 3A4 (Homo sapiens, UniProt P08684); assay: Drug metabolism in human liver microsomes assessed as CYP3A4-mediated metabolism; assay type: ADME
[26] = physchem; conditions: octanol/water phosphate buffer, pH 7.4
[27] = target: T2, Non-receptor tyrosine-protein kinase TYK2 (Homo sapiens, UniProt P29597); assay: Inhibition of N-terminal GST tagged human TYK2 (871 to 1187 end residues) catalytic domain expressed in baculovirus expression system at 1 uM in presence of ATP at its Km level relative to control
T2 sequence (P29597 whole entry, the tested form may be a part): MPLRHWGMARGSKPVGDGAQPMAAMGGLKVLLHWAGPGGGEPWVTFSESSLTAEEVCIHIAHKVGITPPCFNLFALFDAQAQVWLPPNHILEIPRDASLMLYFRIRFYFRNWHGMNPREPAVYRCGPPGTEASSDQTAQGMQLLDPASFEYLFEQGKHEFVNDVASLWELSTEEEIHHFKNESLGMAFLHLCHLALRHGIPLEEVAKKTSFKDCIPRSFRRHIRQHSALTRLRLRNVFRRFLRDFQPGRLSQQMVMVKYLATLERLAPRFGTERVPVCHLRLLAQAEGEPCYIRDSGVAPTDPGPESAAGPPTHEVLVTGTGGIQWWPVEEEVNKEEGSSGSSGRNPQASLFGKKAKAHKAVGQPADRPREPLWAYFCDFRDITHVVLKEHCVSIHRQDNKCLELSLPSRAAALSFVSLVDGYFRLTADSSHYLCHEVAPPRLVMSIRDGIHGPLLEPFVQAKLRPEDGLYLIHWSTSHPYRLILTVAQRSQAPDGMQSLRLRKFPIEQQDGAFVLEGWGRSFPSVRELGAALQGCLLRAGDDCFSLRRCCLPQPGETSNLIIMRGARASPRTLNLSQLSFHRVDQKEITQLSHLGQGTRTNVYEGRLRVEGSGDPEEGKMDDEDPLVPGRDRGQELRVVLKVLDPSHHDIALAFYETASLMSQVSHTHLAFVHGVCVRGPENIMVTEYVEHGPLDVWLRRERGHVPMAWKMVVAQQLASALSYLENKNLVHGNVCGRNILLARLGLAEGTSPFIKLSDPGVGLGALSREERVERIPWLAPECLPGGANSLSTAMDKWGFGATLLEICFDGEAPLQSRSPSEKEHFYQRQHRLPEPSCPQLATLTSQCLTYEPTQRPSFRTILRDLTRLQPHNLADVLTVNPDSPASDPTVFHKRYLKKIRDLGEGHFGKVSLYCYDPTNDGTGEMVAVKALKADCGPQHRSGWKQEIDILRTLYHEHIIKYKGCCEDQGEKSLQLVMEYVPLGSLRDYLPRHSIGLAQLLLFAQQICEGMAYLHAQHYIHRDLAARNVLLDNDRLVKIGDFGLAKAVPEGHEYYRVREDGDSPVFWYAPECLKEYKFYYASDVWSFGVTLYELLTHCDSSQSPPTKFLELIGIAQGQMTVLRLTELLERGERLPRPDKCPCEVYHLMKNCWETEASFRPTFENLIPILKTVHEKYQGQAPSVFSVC

[28] = target: T3, Tyrosine-protein kinase JAK1 (Homo sapiens, UniProt P23458); assay: Inhibition of N-terminal GST tagged human JAK1 (850 to 1154 end residues) catalytic domain expressed in baculovirus expression system at 1 uM in presence of ATP at its Km level relative to control
T3 sequence (P23458 whole entry, the tested form may be a part): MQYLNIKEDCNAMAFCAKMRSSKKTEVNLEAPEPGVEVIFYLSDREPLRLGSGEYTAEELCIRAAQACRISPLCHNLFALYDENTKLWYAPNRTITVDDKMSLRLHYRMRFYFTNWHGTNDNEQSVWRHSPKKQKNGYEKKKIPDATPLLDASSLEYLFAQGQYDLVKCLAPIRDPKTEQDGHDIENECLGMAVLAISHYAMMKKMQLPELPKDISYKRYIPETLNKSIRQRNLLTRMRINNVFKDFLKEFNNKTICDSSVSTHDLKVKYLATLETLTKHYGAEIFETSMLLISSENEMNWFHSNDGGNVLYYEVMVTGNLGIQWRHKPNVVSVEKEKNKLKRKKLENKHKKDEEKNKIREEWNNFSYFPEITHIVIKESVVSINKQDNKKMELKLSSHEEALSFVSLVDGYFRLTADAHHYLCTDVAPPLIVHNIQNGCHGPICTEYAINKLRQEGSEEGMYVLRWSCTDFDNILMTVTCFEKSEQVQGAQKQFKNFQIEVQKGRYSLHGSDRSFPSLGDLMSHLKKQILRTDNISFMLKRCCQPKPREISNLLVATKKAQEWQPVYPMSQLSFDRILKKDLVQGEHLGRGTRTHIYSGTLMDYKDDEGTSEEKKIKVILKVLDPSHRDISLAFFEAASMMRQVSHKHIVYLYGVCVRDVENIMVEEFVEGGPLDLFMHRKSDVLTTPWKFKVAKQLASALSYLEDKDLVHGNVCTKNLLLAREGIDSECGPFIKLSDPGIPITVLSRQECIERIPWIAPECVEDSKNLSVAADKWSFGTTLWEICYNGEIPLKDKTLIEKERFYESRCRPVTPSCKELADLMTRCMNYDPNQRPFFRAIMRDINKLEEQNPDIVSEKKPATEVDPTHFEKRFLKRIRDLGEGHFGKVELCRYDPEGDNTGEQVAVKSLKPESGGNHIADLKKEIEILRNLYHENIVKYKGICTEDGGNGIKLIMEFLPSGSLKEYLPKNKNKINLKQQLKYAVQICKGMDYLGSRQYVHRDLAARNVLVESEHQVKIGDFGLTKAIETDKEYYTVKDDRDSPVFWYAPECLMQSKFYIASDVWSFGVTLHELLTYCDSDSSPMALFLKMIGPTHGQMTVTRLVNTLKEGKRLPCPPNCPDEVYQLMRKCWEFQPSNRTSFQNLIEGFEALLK

[29] = target: T4, Tyrosine-protein kinase JAK2 (Homo sapiens, UniProt O60674); assay: Inhibition of N-terminal His tagged human JAK2 (826 to 1132 end residues) catalytic domain expressed in baculovirus expression system at 1 uM in presence of ATP at its Km level relative to control
T4 sequence (O60674 whole entry, the tested form may be a part): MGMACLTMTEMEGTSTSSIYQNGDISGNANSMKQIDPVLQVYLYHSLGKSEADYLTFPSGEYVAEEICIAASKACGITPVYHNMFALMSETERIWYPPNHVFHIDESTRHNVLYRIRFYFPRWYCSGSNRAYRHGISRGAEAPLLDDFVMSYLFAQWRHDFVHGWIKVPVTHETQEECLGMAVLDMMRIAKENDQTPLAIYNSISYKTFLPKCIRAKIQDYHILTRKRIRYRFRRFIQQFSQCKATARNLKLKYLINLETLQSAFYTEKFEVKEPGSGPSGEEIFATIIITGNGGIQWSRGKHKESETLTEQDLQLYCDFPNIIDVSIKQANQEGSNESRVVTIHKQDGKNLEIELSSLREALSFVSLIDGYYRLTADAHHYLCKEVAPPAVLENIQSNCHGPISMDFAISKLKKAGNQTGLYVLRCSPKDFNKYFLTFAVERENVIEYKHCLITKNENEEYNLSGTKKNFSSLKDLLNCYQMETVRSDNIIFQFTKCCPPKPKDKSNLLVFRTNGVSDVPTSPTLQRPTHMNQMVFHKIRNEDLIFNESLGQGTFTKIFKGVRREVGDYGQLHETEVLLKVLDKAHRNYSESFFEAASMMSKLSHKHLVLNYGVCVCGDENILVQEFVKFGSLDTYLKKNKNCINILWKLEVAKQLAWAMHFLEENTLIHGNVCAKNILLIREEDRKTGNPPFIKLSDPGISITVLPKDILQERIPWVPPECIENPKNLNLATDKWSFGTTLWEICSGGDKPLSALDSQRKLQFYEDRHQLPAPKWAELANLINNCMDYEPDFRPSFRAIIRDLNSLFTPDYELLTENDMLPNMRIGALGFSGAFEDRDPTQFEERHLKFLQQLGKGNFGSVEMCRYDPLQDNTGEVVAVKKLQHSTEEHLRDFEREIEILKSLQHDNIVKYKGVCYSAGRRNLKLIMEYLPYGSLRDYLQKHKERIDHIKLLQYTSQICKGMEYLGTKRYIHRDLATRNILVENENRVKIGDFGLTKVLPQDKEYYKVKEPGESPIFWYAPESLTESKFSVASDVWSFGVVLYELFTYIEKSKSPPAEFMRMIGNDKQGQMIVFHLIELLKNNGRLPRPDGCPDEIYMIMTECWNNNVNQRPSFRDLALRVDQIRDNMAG

[30] = target: Non-receptor tyrosine-protein kinase TNK1 (Homo sapiens) (UniProt Q13470); assay: Inhibition of N-terminal GST tagged human TNK1 (106 to 390 residues) catalytic domain expressed in baculovirus expression system at 1 uM in presence of ATP at its Km level relative to control
[31] = target: Tyrosine-protein kinase JAK3 (Homo sapiens) (UniProt P52333); assay: Inhibition of N-terminal His tagged human JAK3 (795 to 1124 end residues) catalytic domain expressed in baculovirus expression system at 1 uM in presence of ATP at its Km level relative to control
[32] = target: Serine/threonine-protein kinase SIK2 (Homo sapiens) (UniProt Q9H0K1); assay: Inhibition of N-terminal GST tagged full length human QIK (1 to 926 end residues) expressed in baculovirus expression system at 1 uM in presence of ATP at its Km level relative to control
[33] = target: Activated CDC42 kinase 1 (Homo sapiens) (UniProt Q07912); assay: Inhibition of N-terminal GST tagged human ACK (110 to 476 residues) catalytic domain expressed in baculovirus expression system at 1 uM in presence of ATP at its Km level relative to control
[34] = tested on: Platelet-derived growth factor receptor alpha (Homo sapiens), P16234 [T674I]; assay: Inhibition of N-terminal GST tagged human PDGFRalpha (550 to 1089 end residues) catalytic domain T674I mutant expressed in baculovirus expression system at 1 uM in presence of ATP at its Km level relative to control
[35] = target: Serine/threonine-protein kinase SIK1 (Homo sapiens) (UniProt P57059); assay: Inhibition of N-terminal GST tagged full length human SIK (1 to 783 end residues) expressed in baculovirus expression system at 1 uM in presence of ATP at its Km level relative to control
[36] = target: Platelet-derived growth factor receptor alpha (Homo sapiens) (UniProt P16234); assay: Inhibition of N-terminal GST tagged human PDGFRalpha (550 to 1089 end residues) cytoplasmic domain expressed in baculovirus expression system at 1 uM in presence of ATP at its Km level relative to control
[37] = target: Dual specificity mitogen-activated protein kinase kinase 5 (Homo sapiens) (UniProt Q13163); assay: Inhibition of N-terminal GST tagged full length human MAP2K5 (1 to 448 end residues) co-expressing His tagged MAP3K3/ CDC37/HSP90 expressed in baculovirus expression system at 1 uM in presence of ATP at its Km level relative to control
[38] = target: MAP kinase-interacting serine/threonine-protein kinase 2 (Homo sapiens) (UniProt Q9HBH9); assay: Inhibition of N-terminal GST tagged full length human MNK2 (1 to 465 end residues) expressed in baculovirus expression system at 1 uM in presence of ATP at its Km level relative to control
[39] = target: Platelet-derived growth factor receptor beta (Homo sapiens) (UniProt P09619); assay: Inhibition of N-terminal GST tagged human PDGFRbeta (557 to 1106 end residues) cytoplasmic domain expressed in baculovirus expression system at 1 uM in presence of ATP at its Km level relative to control
[40] = target: Mitogen-activated protein kinase 7 (Homo sapiens) (UniProt Q13164); assay: Inhibition of N-terminal GST tagged human ERK5 (1 to 398 residues) cytoplasmic domain expressed in Escherichia coli at 1 uM in presence of ATP at its Km level relative to control
[41] = target: Aurora kinase A (Homo sapiens) (UniProt O14965); assay: Inhibition of N-terminal GST tagged full length human AurA (1 to 403 end residues) expressed in baculovirus expression system at 1 uM in presence of ATP at its Km level relative to control
[42] = tested on: Platelet-derived growth factor receptor alpha (Homo sapiens), P16234 [V561D]; assay: Inhibition of N-terminal GST tagged human PDGFRalpha (550 to 1089 end residues) catalytic domain V561D mutant expressed in baculovirus expression system at 1 uM in presence of ATP at its Km level relative to control
[43] = target: NUAK family SNF1-like kinase 1 (Homo sapiens) (UniProt O60285); assay: Inhibition of N-terminal GST tagged full length human Nuak1 (1 to 661 end residues) expressed in baculovirus expression system at 1 uM in presence of ATP at its Km level relative to control
[44] = target: Macrophage colony-stimulating factor 1 receptor (Homo sapiens) (UniProt P07333); assay: Inhibition of N-terminal GST tagged human FMS (538 to 972 end residues) cytoplasmic domain expressed in baculovirus expression system at 1 uM in presence of ATP at its Km level relative to control
[45] = target: MAP/microtubule affinity-regulating kinase 4 (Homo sapiens) (UniProt Q96L34); assay: Inhibition of N-terminal GST tagged full length human MARK4 (1 to 688 end residues) expressed in baculovirus expression system at 1 uM in presence of ATP at its Km level relative to control
[46] = target: MAP/microtubule affinity-regulating kinase 3 (Homo sapiens) (UniProt P27448); assay: Inhibition of N-terminal GST tagged full length human MARK3 (1 to 729 end residues) expressed in baculovirus expression system at 1 uM in presence of ATP at its Km level relative to control
[47] = target: T2, Non-receptor tyrosine-protein kinase TYK2; assay: Inhibition of N-terminal GST tagged human TYK2 (871 to 1187 end residues) catalytic domain expressed in baculovirus expression system at 1 uM in presence of 1 mM ATP relative to control
[48] = target: T3, Tyrosine-protein kinase JAK1; assay: Inhibition of N-terminal GST tagged human JAK1 (850 to 1154 end residues) catalytic domain expressed in baculovirus expression system at 1 uM in presence of 1 mM ATP relative to control
[49] = target: T4, Tyrosine-protein kinase JAK2; assay: Inhibition of N-terminal His tagged human JAK2 (826 to 1132 end residues) catalytic domain expressed in baculovirus expression system at 1 uM in presence of 1 mM ATP relative to control
[50] = target: Non-receptor tyrosine-protein kinase TNK1 (Homo sapiens) (UniProt Q13470); assay: Inhibition of N-terminal GST tagged human TNK1 (106 to 390 residues) catalytic domain expressed in baculovirus expression system at 1 uM in presence of 1 mM ATP relative to control
[51] = tested on: Rattus norvegicus; assay: Antiarthritic activity in complete freund's adjuvant-induced Lewis rat arthritis model assessed as reduction in paw volume administered orally as once daily dose via gavage treated for 7 consecutive days by plethysmography; assay type: functional, organism-based

In the case of Cn1cc(Nc2nccc(N3CC4CC[C@H](C3)N4C(=O)[C@@H]3CC3(F)F)n2)cn1 (single isomer, unassigned) [listing 1 of 2 here], the Papp A→B [1] was 18.8 ×10⁻⁶ cm/s, the solubility thermodynamic [2] was 4840 µg/mL (≈ 12.4 mM) and the solubility [3] was over 7000 µg/mL. For the same compound, the solubility [4] was over 7000 µg/mL, the CL free [5] was under 10 µL/min and the CL free [6] was under 0.6 µL/min. For the same compound, the fraction unbound [7] was 0.69, the fraction unbound [8] was 0.61 and the pIC50 [9] was 5.80. The pIC50 [10] was under 4.52, the Drug metabolism [11] was “Metabolite_Detected” and the Drug metabolism [12] was “Metabolite_Detected”. For the same compound, the Drug metabolism [13] was “Metabolite_Detected”, the Drug metabolism [14] was “Metabolite_Detected” and the Drug metabolism [15] was “Metabolite_Detected”. The Drug metabolism [16] was “Metabolite_Detected”, the Drug metabolism [17] was “Metabolite_Detected” and the Drug metabolism [18] was “Metabolite_Detected”. The Drug metabolism [19] was “Metabolite_Detected”, the Drug metabolism [20] was “Metabolite_Detected” and the Drug metabolism [21] was “Metabolite_Detected”. For the same compound, the Drug metabolism [22] was “Metabolite_Detected”, the Drug metabolism [23] was “Metabolite_Detected” and the Drug metabolism [24] was “Metabolite_Detected”. The Drug metabolism [25] was “Metabolite_Detected” and the logD [26] was 1.61.

With Cn1cc(Nc2nccc(N3CC4CC[C@H](C3)N4C(=O)[C@@H]3CC3(F)F)n2)cn1 (single isomer, unassigned) [listing 2 of 2 here] the inhibition [27] was 101%, the inhibition [28] was 101% and the inhibition [29] was 101%. For the same compound, the inhibition [30] was 94%, the inhibition [31] was 92% and the inhibition [32] was 91%. It also gave an inhibition [33] of 82%, an inhibition [34] of 78% and an inhibition [35] of 77%. The inhibition [36] was 70%, the inhibition [37] was 70% and the inhibition [38] was 68%. The inhibition [39] was 66%, the inhibition [40] was 63% and the inhibition [41] was 62%. The inhibition [42] was 60%, the inhibition [43] was 60% and the inhibition [44] was 59%. The inhibition [45] was 59%, the inhibition [46] was 50% and the inhibition [47] was 98%. It also gave an inhibition [48] of 96%, an inhibition [49] of 94% and an inhibition [50] of 64%. For the same compound, the Activity [51] was “Dose-dependent effect”.
